According to ChEMBL document CHEMBL4196117, “PK/PD Disconnect Observed with a Reversible Endothelial Lipase Inhibitor” (ACS Med Chem Lett, 2018):
The source made the active and inactive calls. The calls are words filed in the database; no cut-off is given here.

Assays:
Endothelial lipase [1] = molecular target: T1, Endothelial lipase (Homo sapiens, UniProt Q9Y5X9); assay: Inhibition of endothelial lipase in human HT1080 cells using HDL as substrate pretreated for 10 mins followed by substrate addition and measured after 30 mins by LC/MS/MS analysis; assay type: cell-based
T1 sequence (Q9Y5X9 whole entry): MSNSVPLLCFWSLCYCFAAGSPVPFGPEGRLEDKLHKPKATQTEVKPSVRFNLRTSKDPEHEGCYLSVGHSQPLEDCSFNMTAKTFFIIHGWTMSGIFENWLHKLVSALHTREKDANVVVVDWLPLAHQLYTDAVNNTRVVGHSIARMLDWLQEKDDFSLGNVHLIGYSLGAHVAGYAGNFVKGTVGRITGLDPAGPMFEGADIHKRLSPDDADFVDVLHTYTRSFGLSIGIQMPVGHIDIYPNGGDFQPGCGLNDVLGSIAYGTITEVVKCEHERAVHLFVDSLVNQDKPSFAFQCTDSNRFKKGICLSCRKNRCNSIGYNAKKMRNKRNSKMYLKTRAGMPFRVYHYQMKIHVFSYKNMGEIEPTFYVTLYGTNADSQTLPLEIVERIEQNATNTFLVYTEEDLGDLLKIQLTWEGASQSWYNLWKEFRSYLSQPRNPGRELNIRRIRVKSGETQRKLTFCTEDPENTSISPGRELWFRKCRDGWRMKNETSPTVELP

Endothelial lipase [2] = molecular target: T1, Endothelial lipase; assay: Inhibition of endothelial lipase in human HT1080 cells using PED-A1 containing DMPG vesicles as substrate pretreated for 20 mins followed by substrate addition and measured every 20 secs for 10 mins by fluorescence assay; assay type: cell-based
[3] = molecular target: T2, Endothelial lipase (Homo sapiens) (UniProt Q9Y5X9); assay: Ratio of IC50 for endothelial lipase in human HT1080 cells using HDL as substrate to IC50 for endothelial lipase in human HT1080 cells using PED-A1 containing DMPG vesicles as substrate; assay type: cell-based
T2 sequence (whole entry): T1 sequence (Q9Y5X9 whole entry)

[4] = Dissociation constant, pKa of the compound; assay type: physicochemical
Lipoprotein lipase = molecular target: T3, Lipoprotein lipase (Homo sapiens, UniProt P06858); assay: Inhibition of recombinant human LPL expressed in African green monkey COS7 cells using DGGR/DMPG vesicles as substrate pretreated for 10 mins followed by substrate addition and measured for 5 mins
T3 sequence (P06858 whole entry): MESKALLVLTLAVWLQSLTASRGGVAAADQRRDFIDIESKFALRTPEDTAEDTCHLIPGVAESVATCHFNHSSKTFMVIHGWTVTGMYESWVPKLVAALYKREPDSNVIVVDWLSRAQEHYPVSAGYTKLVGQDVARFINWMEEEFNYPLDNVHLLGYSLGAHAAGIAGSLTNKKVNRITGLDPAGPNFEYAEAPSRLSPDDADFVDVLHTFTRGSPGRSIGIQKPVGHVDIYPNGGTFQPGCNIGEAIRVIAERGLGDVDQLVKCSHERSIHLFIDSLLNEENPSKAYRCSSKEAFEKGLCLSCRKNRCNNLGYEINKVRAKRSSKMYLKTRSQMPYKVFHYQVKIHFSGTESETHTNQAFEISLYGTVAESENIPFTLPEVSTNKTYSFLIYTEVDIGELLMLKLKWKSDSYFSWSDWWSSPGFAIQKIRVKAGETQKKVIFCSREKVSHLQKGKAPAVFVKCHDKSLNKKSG

[5] = Half life in CD1 mouse at 1 mg/kg, iv administered as bolus dose; assay type: ADME, organism-based; conditions: in vivo
[6] = Oral bioavailability in CD1 mouse at 1 mg/kg administered as bolus dose; assay type: ADME, organism-based; conditions: in vivo
[7] = Total AUC in CD1 mouse at 1 mg/kg, po administered as bolus dose; assay type: ADME, organism-based; set-up: dose 1 mg/kg, route oral, time AUCmax; conditions: in vivo
[8] = Total AUC in CD1 mouse at 1 mg/kg, iv administered as bolus dose; assay type: ADME, organism-based; set-up: dose 1 mg/kg, time AUCmax, route intravenous; conditions: in vivo
[9] = molecular target: T4, Hepatic triacylglycerol lipase (Homo sapiens, UniProt P11150); assay: Inhibition of recombinant human HL expressed in African green monkey COS7 cells using HDL as substrate pretreated for 10 mins followed by substrate addition and measured after 30 mins by LC/MS/MS analysis
T4 sequence (P11150 whole entry): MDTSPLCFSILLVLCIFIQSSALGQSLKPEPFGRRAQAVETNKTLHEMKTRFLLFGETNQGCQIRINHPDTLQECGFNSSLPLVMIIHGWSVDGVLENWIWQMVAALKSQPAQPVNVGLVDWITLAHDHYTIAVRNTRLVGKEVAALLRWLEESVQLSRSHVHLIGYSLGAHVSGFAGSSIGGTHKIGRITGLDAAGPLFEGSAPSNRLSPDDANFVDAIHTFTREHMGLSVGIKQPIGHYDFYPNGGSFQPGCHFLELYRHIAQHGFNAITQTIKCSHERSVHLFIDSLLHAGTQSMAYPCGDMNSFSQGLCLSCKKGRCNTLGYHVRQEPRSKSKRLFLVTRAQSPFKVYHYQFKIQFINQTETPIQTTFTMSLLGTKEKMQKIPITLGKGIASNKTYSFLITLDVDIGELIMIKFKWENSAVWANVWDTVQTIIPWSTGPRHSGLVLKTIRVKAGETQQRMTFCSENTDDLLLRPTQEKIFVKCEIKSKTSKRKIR

[10] = Cmax in CD1 mouse at 1 mg/kg, po administered as bolus dose; assay type: ADME, organism-based; set-up: dose 1 mg/kg, route oral; conditions: in vivo
[11] = Cmax in CD1 mouse at 1 mg/kg, iv administered as bolus dose; assay type: ADME, organism-based; set-up: dose 1 mg/kg, route intravenous; conditions: in vivo
[12] = Half life in CD1 mouse at 1 mg/kg, po administered as bolus dose; assay type: ADME, organism-based; conditions: in vivo
[13] = Clearance in CD1 mouse at 1 mg/kg, iv administered as bolus dose; assay type: ADME, organism-based; conditions: in vivo
[14] = molecular target: T2, Endothelial lipase (Homo sapiens); assay: Reversible inhibition of endothelial lipase in human HT1080 cells at 2 uM using PED-A1 containing DMPG vesicles as substrate pretreated for 20 mins followed by compound washout prior to substrate addition and measured every 20 secs for 10 mins by fluorescence assay; assay type: cell-based
Mus musculus = assay: Effect on plasma HDL-C level in C57BL/6J mouse at 10 to 50 mg/kg, po qd for 5 days measured at 1 day for 5 days; assay type: functional, organism-based
[15] = molecular target: T2, Endothelial lipase (Homo sapiens); assay: Competitive inhibition of endothelial lipase in human HT1080 cells using varying level of HDL as substrate pretreated for 10 mins followed by substrate addition and measured after 30 mins by LC/MS/MS analysis; assay type: cell-based
Homo sapiens [16] = species: Homo sapiens; assay: Selectivity ratio of IC50 for recombinant human HL expressed in African green monkey COS7 cells using HDL as substrate to IC50 for endothelial lipase in human HT1080 cells using HDL as substrate; assay type: cell-based
Homo sapiens [17] = species: Homo sapiens; assay: Selectivity ratio of IC50 for MAGL (unknown origin) to IC50 for endothelial lipase in human HT1080 cells using PED-A1 containing DMPG vesicles as substrate; assay type: cell-based
Homo sapiens [18] = species: Homo sapiens; assay: Selectivity ratio of IC50 for recombinant human LPL expressed in African green monkey COS7 cells to IC50 for endothelial lipase in human HT1080 cells using PED-A1 containing DMPG vesicles as substrate; assay type: cell-based
[19] = molecular target: T5, Endothelial lipase (Mus musculus) (UniProt Q9WVG5); assay: Competitive inhibition of recombinant mouse endothelial lipase expressed in HEK293F cells using varying levels of HDL as substrate pretreated for 10 mins followed by substrate addition and measured after 30 mins by LC/MS/MS analysis
T5 sequence (whole entry): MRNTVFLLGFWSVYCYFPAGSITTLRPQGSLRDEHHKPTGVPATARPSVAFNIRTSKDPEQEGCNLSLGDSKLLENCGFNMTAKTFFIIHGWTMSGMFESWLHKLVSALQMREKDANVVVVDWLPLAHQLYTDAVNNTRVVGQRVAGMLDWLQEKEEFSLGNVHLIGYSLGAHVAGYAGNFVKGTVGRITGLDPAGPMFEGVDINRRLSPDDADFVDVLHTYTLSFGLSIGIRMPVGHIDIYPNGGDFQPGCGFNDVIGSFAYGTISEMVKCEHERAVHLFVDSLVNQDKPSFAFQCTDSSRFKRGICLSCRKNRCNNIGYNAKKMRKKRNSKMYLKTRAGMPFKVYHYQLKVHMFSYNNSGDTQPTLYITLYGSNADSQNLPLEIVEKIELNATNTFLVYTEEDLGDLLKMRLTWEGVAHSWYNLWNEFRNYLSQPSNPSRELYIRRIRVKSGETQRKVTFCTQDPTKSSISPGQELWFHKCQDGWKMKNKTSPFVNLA

Homo sapiens [20] = species: Homo sapiens; assay: Selectivity ratio of IC50 for recombinant human PL expressed in HEK293F cells to IC50 for endothelial lipase in human HT1080 cells using PED-A1 containing DMPG vesicles as substrate; assay type: cell-based

## CCN1CC(C(=O)NC(C)CCc2ccc(Cl)c(Cl)c2)=C(O)C1=O (stereo in doubt; 7d)
Endothelial lipase [1]
  IC50: 0.835 µM
Endothelial lipase [2]
  IC50: 0.91 µM

## CCN1CC(C(=O)NCCCc2ccc(Cl)c(Cl)c2)=C(NCCOC(C)C)C1=O
[3]
  Ratio IC50: > 50
Endothelial lipase [1]
  IC50: 0.945 µM
Endothelial lipase [2]
  IC50: 0.019 µM

## CN1C(=O)C(O)=C(C(=O)NCCCc2ccc(Cl)c(Cl)c2)C1C1CC1 (centres undefined)
[3]
  Ratio IC50: 60 to 100
Endothelial lipase [1]
  IC50: 5.29 µM
Endothelial lipase [2]
  IC50: 0.088 µM

## Cn1ccc(C(=O)NCCCc2ccc(Cl)c(Cl)c2)c(O)c1=O
[4]
  pKa: 6.5
Lipoprotein lipase
  IC50: > 90 µM
[5]
  half-life: 4.9 h
[6]
  bioavailability: 82%
[7]
  AUC: 16 µM·h
[8]
  AUC: 19 µM·h
[9]
  IC50: 0.016 µM
[10]
  Cmax: 2 µM
[11]
  Cmax: 25 µM
Endothelial lipase [2]
  IC50: 0.061 µM
[12]
  half-life: 2.9 h
[13]
  clearance: 0.15 L/h/kg
[14]
  inhibition: Active

## CN1C(=O)C(O)=C(C(=O)NCCCc2ccc(Cl)c(Cl)c2)C1CC(C)(C)C (centres undefined)
[3]
  Ratio IC50: 60 to 100
Endothelial lipase [1]
  IC50: 1.77 µM
Endothelial lipase [2]
  IC50: 0.029 µM

## O=C(NCCCc1ccc(Cl)c(Cl)c1)C1=C(O)C(=O)N(CCN2CCOCC2)C1
Endothelial lipase [2]
  IC50: 0.19 µM

## CCN1CC(C(=O)NCCCc2ccc(Cl)c(Cl)c2)=C(NCCc2ccncc2)C1=O
[3]
  Ratio IC50: > 50
Endothelial lipase [1]
  IC50: 5.99 µM
Endothelial lipase [2]
  IC50: 0.059 µM

## CCN1CC(C(=O)NC(C)CCc2ccc(Cl)c(Cl)c2)=C(O)C1=O (stereo in doubt; 7c)
Mus musculus
  Activity: inactive
[15]
  inhibition: inactive
Homo sapiens [16]
  Ratio IC50: 12
Homo sapiens [17]
  Ratio IC50: > 250
Homo sapiens [18]
  Ratio IC50: > 250
[19]
  inhibition: inactive
Homo sapiens [20]
  Ratio IC50: > 250

## CCN1CC(C(=O)NCCCc2ccc(Cl)c(Cl)c2)=C(NCCCN2CCCCC2)C1=O
[3]
  Ratio IC50: > 50
Endothelial lipase [1]
  IC50: 4.21 µM
Endothelial lipase [2]
  IC50: 0.025 µM

## CN1C(=O)C(O)=C(C(=O)NCCCc2ccc(Cl)c(Cl)c2)C1c1ccccc1Cl (centres undefined)
[3]
  Ratio IC50: 60 to 100
Endothelial lipase [1]
  IC50: 5.75 µM
Endothelial lipase [2]
  IC50: 0.059 µM

## CCN1CC(C(=O)NC(C)CCc2ccc(Cl)c(Cl)c2)=C(O)C1=O (racemic)
Endothelial lipase [1]
  IC50: 0.264 µM
Endothelial lipase [2]
  IC50: 0.044 µM

## CCN1CC(C(=O)NCCCc2ccc(Cl)c(Cl)c2)=C(NC)C1=O
[3]
  Ratio IC50: > 50
Endothelial lipase [1]
  IC50: 3.02 µM
Endothelial lipase [2]
  IC50: < 0.01 µM

## CN1CC(C(=O)NCCc2ccc(Cl)c(Cl)c2)=C(O)C1=O
Endothelial lipase [2]
  IC50: 0.296 µM

## O=C(NCCCc1ccc(Cl)c(Cl)c1)C1=C(O)C(=O)N(CCCN2CCCC2=O)C1
[3]
  Ratio IC50: 11 to 150
Endothelial lipase [1]
  IC50: 2.44 µM
Endothelial lipase [2]
  IC50: 0.019 µM

## O=C(NCCCc1ccc(Cl)c(Cl)c1)C1=C(O)C(=O)N(CCOc2ccccc2)C1
[3]
  Ratio IC50: 11 to 150
Endothelial lipase [1]
  IC50: 0.826 µM

## O=C(NCCCc1ccc(Cl)c(Cl)c1)C1=C(O)C(=O)N(Cc2ccccc2)C1
[3]
  Ratio IC50: 11 to 150

## CN1CC(C(=O)NCCCc2ccccc2)=C(O)C1=O
Endothelial lipase [2]
  IC50: 5.83 µM

## CS(=O)(=O)NC(=O)CCN1CC(C(=O)NCCCc2ccc(Cl)c(Cl)c2)=C(O)C1=O
[3]
  Ratio IC50: 11 to 150
Endothelial lipase [1]
  IC50: 1.05 µM
Endothelial lipase [2]
  IC50: 0.095 µM

## CN1CC(C(=O)NCCCc2ccc(Cl)c(Cl)c2)=C(O)C1=O
[4]
  pKa: 4.8
Lipoprotein lipase
  IC50: > 37 µM
[5]
  half-life: 3.4 h
[3]
  Ratio IC50: 11 to 150
[6]
  bioavailability: 76%
[7]
  AUC: 18 µM·h
[8]
  AUC: 24 µM·h
[9]
  IC50: 0.076 µM
[10]
  Cmax: 8.2 µM
[11]
  Cmax: 32 µM
Endothelial lipase [1]
  IC50: 1.76 µM
Endothelial lipase [2]
  IC50: 0.041 µM
[12]
  half-life: 3.2 h
[13]
  clearance: 0.126 L/h/kg

## CCN1CC(C(=O)NCCCc2ccc(Cl)c(Cl)c2)=C(O)C1=O
[3]
  Ratio IC50: 11 to 150
Endothelial lipase [1]
  IC50: 3.52 µM
Endothelial lipase [2]
  IC50: 0.03 µM
